Values quoted from earlier work in patent US20030109508A1, “Methods for treating dry eye” (Alcon, Inc., priority 2001, published 2003).

Test system: human conjunctival epithelial cells
Conditions: background statement, no data given

## CCCCC[C@H](O)/C=C/C=C\C/C=C\C/C=C\CCCC(=O)O [15-HETE]
  secretion of mucin-1 (MUC-1): increase the secretion of mucin-1 (MUC-1)
